Reference: patent publication US5824647A, “Chemotactic wound healing peptides” (priority 1995, dated 1998)

Columns and labels:
[1] = test system: infant foreskin fibroblasts; assay: Fibroblast chemotaxis in modified Boyden chambers (incl. checkerboard and deactivation studies); assay type: cell-based, human; conditions: for Mean Fibroblasts per 20 OIF + SEM: Experiment 1, lower compartment: TGF-β1 50 pg/ml, peptide 368-374 1.4 × 10^-5 M, peptide 364-378 6.7 × 10^-7 M, fibronectin 20 μg/ml; for fibroblast chemotaxis / migration (in words): peptide in lower compartment of modified Boyden chamber
Experimental: Target cells used in in vitro chemotaxis assays were infant foreskin fibroblasts obtained by establishing monolayer cultures from explants of tissue. Cells were maintained in Eagle's minimum essential medium (MEM) supplemented with non-essential amino acids, antibiotics, 50 ug/ml ascorbic acid, and 9% fetal calf serum (FCS). Cells were passaged by trypsinization every 3-5 days.
Infant foreskin fibroblasts were harvested from monolayer culture by gentle trypsinization, washed twice in serum-free Eagles's MEM and adjusted to a final concentration of 250,000 cells/ml. The cell suspension (0.4 ml) was added to the upper compartments of blind well modified Boyden chemotaxis chambers. The peptides of the invention being assayed for chemotactic activity were solubilized in glycylglycine (0.015M) buffered NaCl (0.14M), pH 7.2, hereinafter referred to as GGBS, and diluted 50% with serum-free MEM. Test substances were added to the lower compartment of the chemotaxis chambers. Gelatin-treated polycarbonate filters (8 micron pore size) were interposed between the lowest compartment and the upper cell compartment. Loaded chambers were incubated at 37° C. in a humidified atmosphere containing 5% CO2 for 150 minutes. After incubation, the chambers were disassembled, the filters removed, stained with hematoxylin, and mounted on glass cover slips. Fibroblast chemotaxis was quantitated by counting the number of fibroblasts in 20 oil immersion fields (OIF) that migrated and adhered to the lower surface of each filter. Samples were tested in quadruplicate and results are expressed as mean number of fibroblasts per 20 OIF±standard error of the mean (SEM). Chemotaxis neutralization studies were performed by adding TGF-β1 or fibronectin to the upper cell compartment and testing for effects on fibroblast migration to the TGF-β peptides.
Zigmond-Hirsch checkerboard analysis (Zigmond & Hirsch, J. Exptl. Med. 137:387, 1972) was performed to determine whether the 7-mer peptide 368-374 (Val Tyr Tyr Val Gly Arg Lys) induced chemotaxis of fibroblasts, monocytes and neutrophils.
Deactivation studies were utilized to determine whether the peptides of the invention containing the 7-mer peptide amino acid sequence induced chemotaxis via cellular receptors and mechanisms utilized by intact TGF-β.

[2] = test system: infant foreskin fibroblasts; assay: Collagen production by fibroblasts (modified Peterofsky-Diegelman assay); assay type: cell-based, human; conditions: [3H]proline incorporation into collagenase-sensitive protein
Experimental: The peptides of the invention were also found to stimulate collagen production by fibroblasts. Collagen production by fibroblasts in response to the peptides of the present invention was measured utilizing a modified Peterofsky-Diegelman assay. The assay is used to determine whether the peptides of the invention stimulate or inhibit collagen production by fibroblasts.
Low passage (4-12 subpassages) infant foreskin fibroblasts were plated out at a density of 10^5 cells/well in Falcon 3008 multiwell plates in complete maintenance medium containing 10% FCS. After cells reached confluency (72 hr), the medium was changed daily for 3 days, each time being replaced with serum-free maintenance medium containing fresh ascorbic acid. Samples (50 μl) were added to triplicate wells containing 450 μl serum-free MEM supplemented with fresh ascorbic acid and [^3 H]-proline (sp. act. 20 Ci/mmole), but no non-essential amino acids. After an additional 24 hr of culture, supernatants were reacted with protease-free bacterial collagenase to digest all collagen. Similar aliquots of unreacted supernatants and bacterial collagenase-treated supernatants were precipitated with cold 10% trichloroacetic acid (TCA) and were centrifuged for 5 minutes in a Beckman microfuge. Aliquots of the supernatants, after TCA precipitated proteins were pelleted, were placed in vials containing Hydrofluor and then were counted in a scintillation counter. CPM from TCA precipitated supernatants not reacted with bacterial collagenase were subtracted from each culture. The resulting CPM was a reflection of the collagen produced by that culture.
A modified Peterofsky-Diegelmann assay was used to screen peptide samples for their ability to stimulate or inhibit collagen production. Low passage (4-12 subpassages) infant foreskin fibroblast were plated out at a density of 10^5 cells/well of Falcon 3008 multiwell plates in complete maintenance medium containing 10% FCS. After cells reached confluency (72 hr) the medium was changed daily for 3 days, each time being replaced with serum-free maintenance medium containing fresh ascorbic acid. Samples ([…]) were added to triplicate wells containing […] serum free MEM supplemented with fresh ascorbic acid and [^3 H]-proline (sp. act. 20 Ci/mmole), but no non-essential amino acids. After an additional 24 hours of culture, supernatants were reacted with protease-free bacterial collagenase to digest all collagen. Similar aliquots of unreacted supernatants and bacterial collagenase-treated supernatants were precipitated with cold 10% trichloroacetic acid (TCA) and were centrifuged for 5 minutes in a Beckman microfuge. Aliquots of the supernatants, after TCA precipitated proteins were pelleted, were placed in vials containing Hydrofluor and then were counted in a scintillation counter. CPM from TCA precipitated supernatants not reacted with bacterial collagenase were subtracted from each culture. The resulting CPM was a reflection of the collagen produced by that culture.
Collagen production was measured following administration of the various 7-mer peptides 368-374 (SEQ ID NOs. 1-5) to fibroblasts. Peptides […] (SEQ ID NO. 1), LYYIGKT (SEQ ID NO. 2), LYYVGRT (SEQ ID NO. 3), IYYVGRN (SEQ ID NO. 4) and IYYVGRT (SEQ ID NO. 5) were synthesized by the Merrifield technique, purified by HPLC, and tested at different concentrations in the same assay for their ability to stimulate production of collagen in confluent cultures of infant foreskin fibroblasts. Collagen production was measured by incorporation of [^3 H]proline into collagenase-sensitive protein. All samples were tested in triplicate, and values represent the mean of triplicate determinations. Data are expressed as "% stimulation" of collagen production relative to control production in cultures with plain culture medium only added. […]

[3] = test system: human peripheral blood monocytes; assay: Monocyte chemotaxis in modified Boyden chambers; assay type: cell-based; conditions: peptide in lower compartment of modified Boyden chamber
Description: (§1) Human peripheral blood neutrophils and monocytes, isolated from whole blood using standard techniques may also be used in the chemotaxis assays, in a manner similar to infant foreskin fibroblasts, to measure the chemotactic activity of the peptides towards inflammatory cells. Such cells may also be maintained in supplemented MEM as above, to which 5-10% FCS may be added. When using neutrophils and monocytes, instead of fibroblasts, the polycarbonate filters used in the modified Boyden chambers had pore sizes of 2 and 3 microns, respectively. As above, all assays were carried out in quadruplicate.
The following 7-mer peptides (peptides 368-374, corresponding to amino acids 368-374 of human TGF-β1): VYYVGRK (SEQ ID NO. 1), LYYIGKT (SEQ ID NO. 2), LYYVGRT (SEQ ID NO. 3), IYYVGRN (SEQ ID NO. 4) and IYYVGRT (SEQ ID NO. 5) were synthesized by the Merrifield technique, purified by HPLC, and tested at different concentrations in the same assay for their ability to stimulate chemotaxis of human peripheral blood monocytes in vitro modified Boyden chambers.

[4] = test system: Human peripheral blood neutrophils; assay: Neutrophil chemotaxis in modified Boyden chambers; assay type: cell-based; conditions: peptide in lower compartment of modified Boyden chamber
Description: as §1

[5] = Media added to upper compartment
[6] = TGF-β1 (50 pg/ml) added to upper compartment

| Substance | Mean Fibroblasts per 20 OIF + SEM [1, 5] | Mean Fibroblasts per 20 OIF + SEM [1, 6] | collagen production by fibroblasts (in words) [2] | monocyte chemotaxis / migration (in words) [3] | neutrophil chemotaxis / migration (in words) [4] | fibroblast chemotaxis / migration (in words) [1] |
| --- | --- | --- | --- | --- | --- | --- |
| TGF-β1: transforming growth factor β1, 50 pg/ml, chemoattractant control and deactivating agent [reference compound] | 7 ± 1 Fibroblasts per 20 OIF | 21 ± 2 Fibroblasts per 20 OIF |  |  |  |  |
| VSQDLEPLTILYYIGKTPKIEQLSNMIVKSC |  |  | stimulated collagen production |  |  |  |
| VPQALEPLPIVYYVGRKPKVEQLSN (VPQALEPLPIVYYVGRKPKVEQLSN) [Peptide 358-382] |  |  |  | induced migration of fibroblasts, monocytes and neutrophils in a dose dependent fashion | induced migration of fibroblasts, monocytes and neutrophils in a dose dependent fashion | induced migration of fibroblasts, monocytes and neutrophils in a dose dependent fashion |
| PIVYYVGRKPKVEQLSNMIVRS (PIVYYVGRKPKVEQLSNMIVRS) [Peptide 366-387] |  |  |  | induced migration of fibroblasts, monocytes and neutrophils in a dose dependent fashion | induced migration of fibroblasts, monocytes and neutrophils in a dose dependent fashion | induced migration of fibroblasts, monocytes and neutrophils in a dose dependent fashion |
| IYYVGRT [7-mer peptide 368-374 homolog] |  |  | stimulated collagen production to some degree | induced monocyte chemotaxis at all of the concentrations tested |  | induced fibroblast chemotaxis at all of the concentration tested |
| Fibronectin [reference compound] | 74 ± 2 Fibroblasts per 20 OIF | 71 ± 6 Fibroblasts per 20 OIF |  |  |  |  |
| 280-293: peptide derived from the N-terminal half of TGF-β1, residues 280-293 (ALDTNYCFSSTEKN; printed: Ala Leu Asp Thr Asn Tyr Cys Phe Ser Ser Thr Glu Lys Asn) [Peptide 280-293] |  |  |  | none of the peptides derived from the N-terminal half of TGF-β1 (peptides 280-293, 296-322 and 328-354) were able to induce migration | none of the peptides derived from the N-terminal half of TGF-β1 (peptides 280-293, 296-322 and 328-354) were able to induce migration | none of the peptides derived from the N-terminal half of TGF-β1 (peptides 280-293, 296-322 and 328-354) were able to induce migration |
| IYYVGRN [7-mer peptide 368-374 homolog] |  |  | stimulated collagen production to some degree | induced monocyte chemotaxis at all of the concentrations tested |  | induced fibroblast chemotaxis at all of the concentration tested |
| LYYVGRT [7-mer peptide 368-374 homolog] |  |  | stimulated collagen production to some degree | induced monocyte chemotaxis at all of the concentrations tested |  | induced fibroblast chemotaxis at all of the concentration tested |
| 328-354: peptide derived from the N-terminal half of TGF-β1, residues 328-354 (PYIWSLDTQYSKVLALYNQHNPGASAA; printed: Pro Tyr Ile Trp Ser Leu Asp Thr Gln Tyr Ser Lys Val Leu Ala Leu Tyr Asn Gln His Asn Pro Gly Ala Ser Ala Ala) [Peptide 328-354] |  |  |  | none of the peptides derived from the N-terminal half of TGF-β1 (peptides 280-293, 296-322 and 328-354) were able to induce migration | none of the peptides derived from the N-terminal half of TGF-β1 (peptides 280-293, 296-322 and 328-354) were able to induce migration | none of the peptides derived from the N-terminal half of TGF-β1 (peptides 280-293, 296-322 and 328-354) were able to induce migration |
| 296-322: peptide derived from the N-terminal half of TGF-β1, residues 296-322 (VRQLYIDFRKDLGWKWIHEPKGYHANF; printed: Val Arg Gln Leu Tyr Ile Asp Phe Arg Lys Asp Leu Gly Trp Lys Trp Ile His Glu Pro Lys Gly Tyr His Ala Asn Phe) [Peptide 296-322] |  |  |  | none of the peptides derived from the N-terminal half of TGF-β1 (peptides 280-293, 296-322 and 328-354) were able to induce migration | none of the peptides derived from the N-terminal half of TGF-β1 (peptides 280-293, 296-322 and 328-354) were able to induce migration | none of the peptides derived from the N-terminal half of TGF-β1 (peptides 280-293, 296-322 and 328-354) were able to induce migration |
